Data reported in US20230113037A1 (Bayer Aktiengesellschaft, priority 2019, published 2023).
Where two headings read alike, the source gives them in different places.

Key:
AHR [1] = molecular target: T1, AHR (Mus musculus, UniProt P30561); assay: In vitro assay 3: antagonism in mouse cell line (AHR transactivation, firefly luciferase reporter, kynurenic acid prestimulated); type: cell-based
T1 sequence (P30561 1-848 P471L/N533S/M589L): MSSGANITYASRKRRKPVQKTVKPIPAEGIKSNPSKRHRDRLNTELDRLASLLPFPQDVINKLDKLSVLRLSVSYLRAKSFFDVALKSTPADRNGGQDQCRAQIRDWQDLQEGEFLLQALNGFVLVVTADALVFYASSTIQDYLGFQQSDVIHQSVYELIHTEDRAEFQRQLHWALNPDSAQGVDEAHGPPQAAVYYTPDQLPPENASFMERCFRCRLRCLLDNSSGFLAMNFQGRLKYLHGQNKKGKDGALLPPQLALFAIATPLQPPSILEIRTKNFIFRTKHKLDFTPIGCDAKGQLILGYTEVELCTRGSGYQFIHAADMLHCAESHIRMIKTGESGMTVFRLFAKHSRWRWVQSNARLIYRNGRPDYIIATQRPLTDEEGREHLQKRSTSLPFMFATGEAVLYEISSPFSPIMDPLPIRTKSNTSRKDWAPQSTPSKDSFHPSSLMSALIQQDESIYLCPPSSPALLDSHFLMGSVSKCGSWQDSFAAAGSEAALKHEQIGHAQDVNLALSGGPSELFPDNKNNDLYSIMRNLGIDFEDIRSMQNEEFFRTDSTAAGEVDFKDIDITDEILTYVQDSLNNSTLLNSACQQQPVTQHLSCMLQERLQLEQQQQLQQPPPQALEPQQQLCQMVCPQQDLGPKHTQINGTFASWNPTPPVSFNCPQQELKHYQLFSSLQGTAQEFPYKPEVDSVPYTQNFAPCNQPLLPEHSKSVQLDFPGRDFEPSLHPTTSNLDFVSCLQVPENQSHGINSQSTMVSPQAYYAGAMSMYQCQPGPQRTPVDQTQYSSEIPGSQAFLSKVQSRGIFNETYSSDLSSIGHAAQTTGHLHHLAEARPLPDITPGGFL
Procedure, shortened: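 Mouse cells stably carrying a DRE-driven AHR-inducible firefly luciferase reporter were prestimulated with the endogenous agonist kynurenic acid before compound addition. Luciferase read by SteadyGlo; cells without kynurenic acid served as full-inhibition control, with normalization to positive and negative controls. Repeat tests reported as mean or median.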

AHR [2] = molecular target: T2, AHR (Homo sapiens, UniProt P35869); assay: In vitro assay 1: antagonism in human cell line (AHR transactivation, firefly luciferase reporter, kynurenic acid prestimulated); type: cell-based; settings: AHR Antagonism Human IC50 [M]
T2 construct: U87 MG glioblastoma cells (ATCC #HTB-14) endogenously expressing AHR; endogenous in cells; host or cells: U87 MG glioblastoma cells (ATCC #HTB-14)
T2 sequence (P35869 11-848): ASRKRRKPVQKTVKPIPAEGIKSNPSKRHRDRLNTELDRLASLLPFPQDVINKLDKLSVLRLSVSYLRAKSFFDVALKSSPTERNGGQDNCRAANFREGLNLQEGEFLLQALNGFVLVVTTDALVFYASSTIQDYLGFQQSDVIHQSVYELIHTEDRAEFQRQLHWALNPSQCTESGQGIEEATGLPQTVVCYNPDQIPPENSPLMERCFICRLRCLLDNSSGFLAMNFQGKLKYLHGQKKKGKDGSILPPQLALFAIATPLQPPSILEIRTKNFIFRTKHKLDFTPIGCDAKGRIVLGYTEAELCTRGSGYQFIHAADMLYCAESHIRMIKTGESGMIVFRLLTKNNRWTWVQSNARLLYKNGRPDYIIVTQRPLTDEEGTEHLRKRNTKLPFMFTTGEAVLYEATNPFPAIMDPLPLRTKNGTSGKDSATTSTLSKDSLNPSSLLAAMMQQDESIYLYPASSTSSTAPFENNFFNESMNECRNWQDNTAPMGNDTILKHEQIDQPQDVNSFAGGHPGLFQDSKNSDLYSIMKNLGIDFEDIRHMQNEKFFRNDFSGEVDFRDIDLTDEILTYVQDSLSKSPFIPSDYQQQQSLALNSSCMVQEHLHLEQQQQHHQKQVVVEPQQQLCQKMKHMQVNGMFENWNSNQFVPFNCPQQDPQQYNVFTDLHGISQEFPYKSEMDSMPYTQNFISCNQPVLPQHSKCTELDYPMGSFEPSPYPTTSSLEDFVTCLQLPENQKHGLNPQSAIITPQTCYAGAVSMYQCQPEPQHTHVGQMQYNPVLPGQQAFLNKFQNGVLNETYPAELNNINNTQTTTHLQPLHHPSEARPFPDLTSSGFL
Procedure, shortened: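 U87 MG glioblastoma cells with endogenous AHR, stably carrying a DRE-driven firefly luciferase reporter and constitutive Renilla reporter, prestimulated with kynurenic acid before compound addition. Firefly and Renilla read by dual luciferase; Renilla flags toxicity; normalized to controls (150 μM kynurenic acid + 5 μM staurosporine as full inhibition); repeat values averaged or median.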

[3] = mouse Hepa 1c1c7 cells, 200 μM kynurenic acid, 20 hours, read-out: AHR Antagonism Mouse IC50
[4] = Hepa 1c1c7 cells, 200 μM kynurenic acid, 20 hours, firefly luciferase reporter, read-out: AHR Antagonism Mouse IC50
[5] = read-out: AHR Antagonism Mouse IC50, mouse Hepa 1c1c7 cells, 200 μM kynurenic acid, 20 hours

| SMILES | IC50 (AHR [1]; [3]) [nM] | IC50 (AHR [2]) [M] | IC50 (AHR [1]; [4]) [nM] | IC50 (AHR [2]; firefly luciferase reporter) [M] | IC50 (AHR [1]; [5]) [nM] |
| --- | --- | --- | --- | --- | --- |
| O=C1NCC[C@H]1Nc1nc2ccccc2c2nc(-c3cc(C(F)(F)F)ccn3)nn12 [Example 366, (3R)-3-({2-[4-(trifluoromethyl)pyridin-2-yl][1,2,4]triazolo[1,5-c]quinazolin-5-yl}amino)pyrrolidin-2-one] | 593 | > 2e-05 |  |  |  |
| O=C1NCCCC[C@H]1Nc1nc2ccccc2c2nc(-c3ccc(Br)o3)nn12 [Example 537, (3R)-3-{[2-(5-bromofuran-2-yl)[1,2,4]triazolo[1,5-c]quinazolin-5-yl]amino}azepan-2-one] | 1.9 | 4.31e-09 |  |  |  |
| N#Cc1ccc(-c2nc3c4cccc(Br)c4nc(N[C@H]4CCCCNC4=O)n3n2)cc1 [Example 559, 4-(7-bromo-5-{[(3S)-2-oxoazepan-3-yl]amino}[1,2,4]triazolo[1,5-c]quinazolin-2-yl)benzonitrile] | 10.4 | 5.14e-09 |  |  |  |
| C[C@@H](Nc1nc2ccccc2c2nc(-c3ccc(S(C)(=O)=O)cc3)nn12)C(=O)NCCN(C)C [Example 774, N-[2-(dimethylamino)ethyl]-N^2-{2-[4-(methanesulfonyl)phenyl][1,2,4]triazolo[1,5-c]quinazolin-5-yl}-D-alaninamide] | 555 | 2.26e-06 |  |  |  |
| Cc1c(-c2nc3c4cccc(Br)c4nc(N[C@@H]4CNCCNC4=O)n3n2)cnn1C [Example 979, (6R)-6-{[7-bromo-2-(1,5-dimethyl-1H-pyrazol-4-yl)[1,2,4]triazolo[1,5-c]quinazolin-5-yl]amino}-1,4-diazepan-5-one] |  |  | 10.5 | 2.13e-08 |  |
| CC[C@H](Nc1nc2c(Br)cccc2c2nc(-c3ccc(Cl)cc3OC(F)F)nn12)C(N)=O [Example 698, (2S)-2-({7-bromo-2-[4-chloro-2-(difluoromethoxy)phenyl][1,2,4]triazolo[1,5-c]quinazolin-5-yl}amino)butanamide] |  | 4.68e-08 |  |  | 7.35 |
| CC(C)n1cc(-c2nc3c4cccc(Cl)c4nc(N[C@@H]4CNCCNC4=O)n3n2)cn1 [Example 956, (6R)-6-({7-chloro-2-[1-(propan-2-yl)-1H-pyrazol-4-yl][1,2,4]triazolo[1,5-c]quinazolin-5-yl}amino)-1,4-diazepan-5-one] |  |  | 8.5 | 5.77e-09 |  |
| CN1CCC(n2cc(-c3nc4c5ccccc5nc(N[C@@H]5CCCCNC5=O)n4n3)cn2)CC1 [Example 596, (3R)-3-({2-[1-(1-methylpiperidin-4-yl)-1H-pyrazol-4-yl][1,2,4]triazolo[1,5-c]quinazolin-5-yl}amino)azepan-2-one] | 3140 | 4.08e-06 |  |  |  |
| O=C1NCCCC[C@H]1Nc1nc2c(Br)cc(Br)cc2c2nc(-c3cccc(F)c3)nn12 [Example 592, (3R)-3-{[7,9-dibromo-2-(3-fluorophenyl)[1,2,4]triazolo[1,5-c]quinazolin-5-yl]amino}azepan-2-one] | > 20000 | 5.21e-07 |  |  |  |
| CCCNC(=O)[C@@H](C)Nc1nc2ccccc2c2nc(-c3ccncc3F)nn12 [Example 487, N^2-[2-(3-fluoropyridin-4-yl)[1,2,4]triazolo[1,5-c]quinazolin-5-yl]-N-propyl-D-alaninamide] | 200 | 3.26e-07 |  |  |  |
| COc1ccc2nc(N[C@@H]3CCCCNC3=O)n3nc(-c4cnn(C)c4)nc3c2c1 [Example 238, (3R)-3-{[9-methoxy-2-(1-methyl-1H-pyrazol-4-yl)[1,2,4]triazolo[1,5-c]quinazolin-5-yl]amino}azepan-2-one] | 344 | 1.69e-07 |  |  |  |
| O=C1NCCCC[C@H]1Nc1nc2c(F)cccc2c2nc(-c3ccncc3)nn12 [Example 552, (3R)-3-{[7-fluoro-2-(pyridin-4-yl)[1,2,4]triazolo[1,5-c]quinazolin-5-yl]amino}azepan-2-one] | 230 | 1.28e-07 |  |  |  |
| Cc1cc(-c2nc3c4ccccc4nc(N[C@@H]4CCCCNC4=O)n3n2)c(C)n1C [Example 606, (3R)-3-{[2-(1,2,5-trimethyl-H-pyrrol-3-yl)[1,2,4]triazolo[1,5-c]quinazolin-5-yl]amino}azepan-2-one] | 3.08 | 9.02e-09 |  |  |  |
| CN(C)c1cccc2c1nc(N[C@@H]1CCCCNC1=O)n1nc(-c3cnn(C)c3)nc21 [Example 828, (3R)-3-{[7-(dimethyalmino)-2-(1-methyl-1H-pyrazol-4-yl)[1,2,4]triazolo[1,5-c]quinazolin-5-yl]amino}azepan-2-one] |  |  | 13500 | 1.78e-07 |  |
| COc1cccc(-c2nc3c4cc(F)ccc4nc(NC4CCCNC4=O)n3n2)c1 (single isomer, unassigned) [Example 188, 3-{[9-fluoro-2-(3-methoxyphenyl)[1,2,4]triazolo[1,5-c]quinazolin-5-yl]amino}piperidin-2-one] | 50.4 | 3e-08 |  |  |  |
| COc1ccc(-c2nc3c4ccccc4nc(N[C@H](C)C(=O)NCCN(C)C(=O)OC(C)(C)C)n3n2)cc1 [Example 889, tert-butyl [2-({N-[2-(4-methoxyphenyl)[1,2,4]triazolo[1,5-c]quinazolin-5-yl]-D-alanyl}amino)ethyl]methylcarbamate] |  |  | 4.45 | 3.9e-09 |  |
| COc1ccc(-c2nc3c4ccccc4nc(N[C@H](C)C(=O)NC4CCCCC4)n3n2)cc1 [Example 665, N-cyclohexyl-N2-[2-(4-methoxyphenyl)[1,2,4]triazolo[1,5-c]quinazolin-5-yl]-D-alaninamide] |  | 1.87e-08 |  |  | 11.3 |
| Cn1cc(-c2nc3c4cccc(Cl)c4nc(N[C@@H]4CCCCNC4=O)n3n2)cn1 [Example 194, (3R)-3-{[7-Chloro-2-(1-methyl-1H-pyrazol-4-yl)[1,2,4]triazolo[1,5-c]quinazolin-5-yl]amino}azepan-2-one] | 3.83 | 1.17e-09 |  |  |  |
| COc1ccc(-c2nc3c4cccc(SC(C)C)c4nc(N[C@@H]4CCCCNC4=O)n3n2)cc1 [Example 767, (3R)-3-({2-(4-methoxyphenyl)-7-[(propan-2-yl)sulfanyl][1,2,4]triazolo[1,5-c]quinazolin-5-yl}amino)azepan-2-one] | 47.6 | 2.69e-08 |  |  |  |
| COc1cccc(-c2nc3c4ccccc4nc(N[C@H](C(N)=O)C(C)C)n3n2)c1 [Example 83, N^2-[2-(3-methoxyphenyl)[1,2,4]triazolo[1,5-c]quinazolin-5-yl]-L-valinamide] | 115 | 6.99e-07 |  |  |  |
| Cc1ccccc1-c1nc2c3ccccc3nc(NC3CNCCNC3=O)n2n1 (centres unmarked) [Example 45, 6-{[2-(2-methylphenyl)[1,2,4]triazolo[1,5-c]quinazolin-5-yl]amino}-1,4-diazepan-5-one] | 14.5 | 1.19e-08 |  |  |  |
| C[C@@H]1COCCN1C(=O)[C@@H](C)Nc1nc2c(Br)cccc2c2nc(-c3cnn(C)c3)nn12 [Example 912, (2R)-2-{[7-bromo-2-(1-methyl-1H-pyrazol-4-yl)[1,2,4]triazolo[1,5-c]quinazolin-5-yl]amino}-1-[(3R)-3-methylmorpholin-4-yl]propan-1-one] |  |  | 13.7 | 2.16e-08 |  |
